# From article PMC7717705, “Topoisomerases inhibition and DNA binding mode of daunomycin–oligoarginine conjugate” (Journal of Enzyme Inhibition and Medicinal Chemistry, 2020)
# Assays:
# h-TopoIIα = h-TopoIIα DNA relaxation assay (negatively supercoiled pBs plasmid, agarose gel); type: biochemical, human; details: drug 1.2 μM; h-TopoIIα 0.4 units; pBs 7.5 nM; drug-DNA pre-incubation 10 min at 4 °C, then 30 min at 30 °C; pH 7.9, 1 mM ATP; 1.2% agarose gel, ethidium bromide; three independent assays
# Procedure: (§1) Human topoisomerase IIα (h-TopoIIα) was purchased from Affymetrix (product number 78303) and stored at −20 °C. Human Topoisomerase I (Sigma, St. Louis, MO). pBluescript (pBs) negatively supercoiled plasmid was directly extracted from an over-night E. coli cell culture by Invitrogen HiPure Plasmid Midi prep Kit according to the instruction of the manufacturers.
# (§2) DNA relaxation assays were performed as previously described[24]^,[25] using the negative supercoiled pBluScript plasmid (pBS) purified from Escherichia coli as a substrate of DNA topoisomerases.
# For h-TopoII-α assay the enzyme (0.4 units) was incubated for 30 min at 30 °C with negatively supercoiled pBS plasmid (7.5 nM), in a final volume of 20 µl of 1× reaction Buffer (10 mM Tris-HCl, pH 7.9, 50 mM NaCl, 50 mM KCl, 0.1 mM EDTA, 5 mM MgCl2, 15 µg/ml BSA, 1 mM ATP). […]
# (§3) All reactions were stopped by the addition of SDS to a final concentration of 1% and the products were analysed by electrophoresis on a 1.2% agarose gel in presence of 0.5X Tris-Borate EDTA buffer. […] Finally the DNA bands were visualised using a BioRad Versadoc imaging system and quantified by Quantity One® software. The relative intensity of each band in the experiment was measured and used to calculate the amount of total DNA and the fraction of total products. For each condition the relaxation activity was expressed as a percentage of DNA products on total DNA[26].
# h-TopoI = h-TopoI DNA relaxation assay (negatively supercoiled pBluescript plasmid, agarose gel); type: biochemical, human; details: drug 1.2 uM (not saturating); h-TopoI 100 nM; plasmid 7.5 nM; drug-DNA pre-incubation 10 min at 4 °C, then 60 min at 37 °C; pH 7.0; 1.2% agarose gel, ethidium bromide
# Procedure: as §1, §2
# For h-TopoI assay the enzyme (100 nM), was incubated for 60 min at 37 °C with negatively supercoiled pBluescript plasmid (7.5 nM) in a final volume of 20 µL of 1X reaction Buffer (10 mM Tris-HCl, pH 7.0, 100 mM NaCl, 0.1 mM NaEDTA, 10 mM MgCL2 and 50 µg/ml BSA). […]
# as §3
# [1] = Fluorescence emission spectrum; type: physicochemical; details: drug 10 µM in 20 mM Tris buffer, pH 7.5; λ = 500–750 nm
# Procedure: (§4) Fluorescence measurements of Dau and Dau-Arg6 were carried out with a JASCO spectrofluorimeter (FP8200) using Quartz cells of 1 cm. Spectra were recorded at drug concentration of 10 µM in a final volume of 1 ml of 20 mM Tris buffer (pH 7.5).
# DNA plasmid (pBs) = experiment: Fluorescence quenching titration with plasmid DNA; type: binding; details: drug 10 µM, pBs plasmid 5 to 40 nM, 20 mM Tris pH 7.5, 5 min equilibrium, room temperature
# Procedure: as §4
# For quenching experiment fluorescence titrations were conducted by keeping the concentration of drugs constant and varying the concentration of pBs plasmid from 5 to 40 nM. The spectroscopic measurements were recorded after 5 min to reach the equilibrium between the drugs and DNA. The spectra were recorded at room temperature in the wavelengths range of λ = 500–700 nm.
# Calf Thymus-DNA (ctDNA) = experiment: DNA thermal melting monitored by circular dichroism; type: binding; details: 4 µM drug, ctDNA 0.2 mg/mL, Tris–HCl buffer, λ = 260 nm
# Procedure: Melting studies were performed on a JascoJ-810 spectropolarimeter as described above by raising the temperature from 5 to 90 °C in 1 °C/min increments using a circulating water bath and monitoring the profiles at λ = 260 nm.
# The DNA thermal melting was measured by monitoring the changes of HT[V] signal with temperature. Melting temperatures (Tm) were determined for each transition data by fitting sigmoidal curves using Boltzmann equations and obtaining good R-squared values (>0.95).
# Calf Thymus DNA (ctDNA) = experiment: Circular dichroism / induced circular dichroism (ICD) of ctDNA; type: binding
# Procedure: Circular dichroism (CD) measurements were performed on a JascoJ-810 spectropolarimeter using a 0.1 cm path-length quartz cuvette at room temperature and the following parameters: three scans at a speed of 20 nm/min, 3 accumulations, 4 s time constant, 1 nm band width and 0.2 nm data pitch.
# The spectral bandwidth was set up at 1 nm in the wavelength range of λ = 225–300 nm. The CD spectra of Calf Thymus DNA (ctDNA; 0.2 mg/mL) with or without drug (at selected concentrations) were measured under a nitrogen atmosphere using a 10 mM Tris-HCl buffer at pH 7.5. Results are presented as a mean of three scans and the buffer background was electronically subtracted from each measurement.
# ICD measurements were recorded by keeping the concentration of ctDNA constant (0.2 mg/mL) and increasing drugs concentrations from 0 to 120 µM.
smiles,measurement,setting,value
"COc1cccc2c1C(=O)c1c(O)c3c(c(O)c1C2=O)C[C@@](O)(C(C)=O)C[C@@H]3O[C@H]1C[C@H](N)[C@H](O)[C@H](C)O1 [Dau, daunomycin]",inhibition of the total h-TopoIIα activity (DNA relaxation),h-TopoIIα,50%
same,inhibition of the TopoI activity (DNA relaxation),h-TopoI,20%
same,emission maximum λmax,[1],596 nm
same,fluorescence intensity on titration with DNA plasmid,DNA plasmid (pBs),decreases with increasing concentration of DNA
same,melting temperature (Tm) of ctDNA with drug,"Calf Thymus-DNA (ctDNA); 5 to 90 °C at 1 °C/min, Boltzmann fit, ctDNA alone 81.3 °C",90.3 °C
same,increase in melting temperature of ctDNA,Calf Thymus-DNA (ctDNA); versus ctDNA without drugs (81 °C),about 9 °C
same,DNA binding mode,"Calf Thymus DNA (ctDNA); CD studies with ctDNA 0.2 mg/mL, 10 mM Tris-HCl pH 7.5",mainly by intercalation
same,change of negative CD band of ctDNA at λ = 245 nm,"Calf Thymus DNA (ctDNA); ctDNA 0.2 mg/mL, 10 mM Tris-HCl pH 7.5, room temperature, increasing drug concentration, mean of three scans",shifting to zero level
